The source of these data is PubChem BioAssay AID652070 (Broad Institute, 2013).

Results filed as inconclusive are left out. Bounds are passed on as bounds.

The test has as its system HT29 HRAS cells, caspase 3/7 luminescence, apoptosis. Kind of test: caspase 3/7 activation in HT29 HRAS cells, mechanism study for HRAS target identification, cell-based, caspase 3/7 luminescence, multiple timepoints, dry powder (AID 652070). Particulars: measured here: second timepoint caspase 3/7.

On to `O=C(NCCOCCOCCOc1ccc(N(C(=O)CCl)C(C(=O)NCCc2ccccc2)c2cccs2)cc1Cl)c1ccc(COC2C#CCCCCC2)cc1` (stereo unspecified), for which the AC40 is above 35 µM.
